# Tests used:
# [1] = test system: HIV-1 (pNL4-3 clone) in HeLaT4 cells; test: Transient DNA transfection assay in HeLaT4 cells (HIV clone pNL4-3), potency; format: cell-based; settings: transfection system
# Excerpt: (§1) Inhibitor-resistant HIV-1 protease variants are cloned as follows:
# (§2) By way of PCR-supported mutagenesis and cloning, HIV-1 protease mutants are generated that are based on the infectious clone pNL4-3 (freely available via the "NIH AIDS reference and reagent program", the original reference is A. Adachi et al. J. Virol (1986) 59, 284-91--but it can, of course, be any other HIV clone, or even clinical material, provided that comparability is ensured). […] The cloned fragments are, for example, only 500 base pairs in length, all of the remainder being unchanged. By using mutations in always the same clone, direct comparability is ensured, which would not be the case in a direct comparison of clinical samples or of different HIV clones.
# (§3) That system is used as a transient DNA transfection system for tests:
# (§4) 1) in order to identify possible cross-resistances of protease variants to several protease inhibitors; and
# (§5) 2) in order to establish the potency and resistance profile of novel inhibitor candidates.
# (§6) Instead of the strains mentioned, there may be used any human T4-positive cells, such as the HeLaT4 cells, deposited under that name by Richard Axel and Paul Maddon in "NIH AIDS reference and reagent program" and obtainable via that source.
# [2] = test system: HIV-1 protease resistant variant (451/76F strain)
# Excerpt: as §1, §2, §3, §4, §5, §6
# [3] = test system: 46I/47V/50V (VX478) strain; test: Transient DNA transfection assay, resistant strain 46I/47V/50V (VX478); format: cell-based, HIV-1; settings: 10 nM, not quantified
# Excerpt: as §1, §2, §3, §4, §5, §6
smiles,measurement,setting,value
"COC(=O)N[C@H](C(=O)N[C@@H](Cc1ccccc1)[C@@H](O)CN(Cc1ccc(-c2ccccn2)cc1)NC(=O)[C@@H](NC(=O)OC)C(C)(C)C)C(C)(C)C [Example 46, 1-[4-(Pyridin-2-yl)-phenyl]-4(S)-hydroxy-5(S)-2,5-bis[N-(N-methoxycarbonyl-(L)-tert-leucyl)amino]-6-phenyl-2-azahexane]",in vitro potency compared with saquinavir,[1],in practical terms better than that of saquinavir
same,activity against resistant variant compared with other protease inhibitors,[2],"comparable with saquinavir and better than that of indinavir (Merck & Co., Inc., see below) or ritonavir"
same,"activity compared with saquinavir, ritonavir and indinavir",[3],"more potent (not quantified) than that of saquinavir, ritonavir and indinavir"
